Data: patent US10695337B2, “Piperidin-4-yl azetidine derivatives as JAK1 inhibitors” (Incyte Corporation, priority 2010, dated 2020)

Target: human JAK1 (a.a. 837-1142)
Assay: In vitro JAK kinase assay (HTRF, phosphorylation of a biotinylated peptide), JAK1
Format: biochemical
Details: measured at 1 mM ATP; JAK2 IC50 / JAK1 IC50
Procedure: Compounds herein were tested for inhibitory activity of JAK targets according to the following in vitro assay described in Park et al., Analytical Biochemistry 1999, 269, 94-104. The catalytic domains of human JAK1 (a.a. 837-1142), Jak2 (a.a. 828-1132) and Jak3 (a.a. 781-1124) with an N-terminal His tag were expressed using baculovirus in insect cells and purified. The catalytic activity of JAK1, JAK2 or JAK3 was assayed by measuring the phosphorylation of a biotinylated peptide. The phosphorylated peptide was detected by homogenous time resolved fluorescence (HTRF). […] Reactions were carried out at room temperature for 1 hr and then stopped with 20 μL 45 mM EDTA, 300 nM SA-APC, 6 nM Eu-Py20 in assay buffer (Perkin Elmer, Boston, Mass.). Binding to the Europium labeled antibody took place for 40 minutes and HTRF signal was measured on a Fusion plate reader (Perkin Elmer, Boston, Mass.).

For `N#CCC1(n2cc(-c3ncnc4[nH]ccc34)cn2)CN(C2CCN(C(=O)c3ccc(F)c(F)c3F)CC2)C1` [Example 46, {3-[4-(7H-pyrrolo[2,3-d]pyrimidin-4-yl)-1H-pyrazol-1-yl]-1-[1-(2,3,4-trifluorobenzoyl)piperidin-4-yl]azetidin-3-yl}acetonitrile], the “IC50 Ratio JAK2/JAK1” value was 6.3.

With `N#CCC1(n2cc(-c3ncnc4[nH]ccc34)cn2)CN(C2CCN(C(=O)c3c(F)ccc(F)c3F)CC2)C1` [Example 47, {3-[4-(7H-pyrrolo[2,3-d]pyrimidin-4-yl)-1H-pyrazol-1-yl]-1-[1-(2,3,6-trifluorobenzoyl)piperidin-4-yl]azetidin-3-yl}acetonitrile] the “IC50 Ratio JAK2/JAK1” value was 3.7.

For `N#CCC1(n2cc(-c3ncnc4[nH]ccc34)cn2)CN(C2CCN(C(=O)c3cc(F)c(F)cc3F)CC2)C1` [Example 48, {3-[4-(7H-pyrrolo[2,3-d]pyrimidin-4-yl)-1H-pyrazol-1-yl]-1-[1-(2,4,5-trifluorobenzoyl)piperidin-4-yl]azetidin-3-yl}acetonitrile], the “IC50 Ratio JAK2/JAK1” value was 6.5.

With `N#CCC1(n2cc(-c3ncnc4[nH]ccc34)cn2)CN(C2CCN(C(=O)c3c(F)cc(F)cc3F)CC2)C1` [Example 49, {3-[4-(7H-pyrrolo[2,3-d]pyrimidin-4-yl)-1H-pyrazol-1-yl]-1-[1-(2,4,6-trifluorobenzoyl)piperidin-4-yl]azetidin-3-yl}acetonitrile] the “IC50 Ratio JAK2/JAK1” value was 6.5.

For `COc1c(Br)cc(C(=O)N2CCC(N3CC(CC#N)(n4cc(-c5ncnc6[nH]ccc56)cn4)C3)CC2)cc1Br` [Example 50, {1-[1-(3,5-dibromo-4-methoxybenzoyl)piperidin-4-yl]-3-[4-(7H-pyrrolo[2,3-d]pyrimidin-4-yl)-1H-pyrazol-1-yl]azetidin-3-yl}acetonitrile], the “IC50 Ratio JAK2/JAK1” value was 6.9.

For `CN(C)c1ccc(C(=O)N2CCC(N3CC(CC#N)(n4cc(-c5ncnc6[nH]ccc56)cn4)C3)CC2)c(F)c1C#N` [Example 51, 3-[(4-{3-(cyanomethyl)-3-[4-(7H-pyrrolo[2,3-d]pyrimidin-4-yl)-1H-pyrazol-1-yl]azetidin-1-yl}piperidin-1yl)carbonyl]-6-(dimethylamino)-2-fluorobenzonitrile], the “IC50 Ratio JAK2/JAK1” value was 6.3.

With `N#CCC1(n2cc(-c3ncnc4[nH]ccc34)cn2)CN(C2CCN(C(=O)c3ccc(C(F)(F)F)c(F)c3)CC2)C1` [Example 52, {1-{1-[3-fluoro-4-(trifluoromethyl)benzoyl]piperidin-4-yl}-3-[4-(7H-pyrrolo[2,3-d]pyrimidin-4-yl)-1H-pyrazol-1-yl]azetidin-3-yl}acetonitrile] the “IC50 Ratio JAK2/JAK1” value was 4.4.

In the case of `N#CCC1(n2cc(-c3ncnc4[nH]ccc34)cn2)CN(C2CCN(C(=O)c3cc(Cl)cc(C(F)(F)F)n3)CC2)C1` [Example 53, {1-(1-{[4-chloro-6-(trifluoromethyl)pyridin-2-yl]carbonyl}piperidin-4-yl)-3-[4-(7H-pyrrolo[2,3-d]pyrimidin-4-yl)-1H-pyrazol-1-yl]azetidin-3-yl}acetonitrile], the “IC50 Ratio JAK2/JAK1” value is reported as 9.4.

In the case of `N#CCC1(n2cc(-c3ncnc4[nH]ccc34)cn2)CN(C2CCN(C(=O)c3cc(F)c(F)c(F)c3F)CC2)C1` [Example 54, {3-[4-(7H-pyrrolo[2,3-d]pyrimidin-4-yl)-1H-pyrazol-1-yl]-1-[1-(2,3,4,5-tetrafluorobenzoyl)piperidin-4-yl]azetidin-3-yl}acetonitrile], the “IC50 Ratio JAK2/JAK1” value is reported as 9.1.

In the case of `COc1ccc(C(=O)N2CCC(N3CC(CC#N)(n4cc(-c5ncnc6[nH]ccc56)cn4)C3)CC2)cc1C#N` [Example 55, 5-[(4-{3-(cyanomethyl)-3-[4-(7H-pyrrolo[2,3-d]pyrimidin-4-yl)-1H-pyrazol-1-yl]azetidin-1-yl}piperidin-1-yl)carbonyl]-2-methoxybenzonitrile], the “IC50 Ratio JAK2/JAK1” value is reported as 7.5.

`N#CCC1(n2cc(-c3ncnc4[nH]ccc34)cn2)CN(C2CCN(C(=O)c3c(F)c(F)cc(F)c3F)CC2)C1` [Example 56, {3-[4-(7H-pyrrolo[2,3-d]pyrimidin-4-yl)-1H-pyrazol-1-yl]-1-[1-(2,3,5,6-tetrafluorobenzoyl)piperidin-4-yl]azetidin-3-yl}acetonitrile] was tested, and the “IC50 Ratio JAK2/JAK1” value was 8.8.

For `N#CCC1(n2cc(-c3ncnc4[nH]ccc34)cn2)CN(C2CCN(C(=O)c3ccnc(C(F)(F)F)c3)CC2)C1` [Example 57, (3-[4-(7H-pyrrolo[2,3-d]pyrimidin-4-yl)-1H-pyrazol-1-yl]-1-{1-[2-(trifluoromethyl)isonicotinoyl]piperidin-4-yl}azetidin-3-yl)acetonitrile], the “IC50 Ratio JAK2/JAK1” value was 3.3.

For `N#CCC1(n2cc(-c3ncnc4[nH]ccc34)cn2)CN(C2CCN(C(=O)c3ccc(F)c(O)c3)CC2)C1` [Example 58, {1-[1-(4-fluoro-3-hydroxybenzoyl)piperidin-4-yl]-3-[4-(7H-pyrrolo[2,3-d]pyrimidin-4-yl)-1H-pyrazol-1-yl]azetidin-3-yl} acetonitrile], the “IC50 Ratio JAK2/JAK1” value was 5.0.

For `CN(C)c1ccc(C(=O)N2CCC(N3CC(CC#N)(n4cc(-c5ncnc6[nH]ccc56)cn4)C3)CC2)cc1C#N` [Example 59, 5-[(4-{3-(cyanomethyl)-3-[4-(7H-pyrrolo[2,3-d]pyrimidin-4-yl)-1H-pyrazol-1-yl]azetidin-1-yl}piperidin-1yl)carbonyl]-2-(dimethylamino)benzonitrile], the “IC50 Ratio JAK2/JAK1” value was 4.6.

For `CN(C)c1c(F)c(F)c(C(=O)N2CCC(N3CC(CC#N)(n4cc(-c5ncnc6[nH]ccc56)cn4)C3)CC2)c(F)c1F` [Example 60, {1-{1-[4-(dimethylamino)-2,3,5,6-tetrafluorobenzoyl]piperidin-4-yl}-3-[4-(7H-pyrrolo[2,3-d]pyrimidin-4-yl)-1H-pyrazol-1-yl]azetidin-3-yl}acetonitrile], the “IC50 Ratio JAK2/JAK1” value was 1.8.

With `N#CCC1(n2cc(-c3ncnc4[nH]ccc34)cn2)CN(C2CCN(C(=O)c3c(F)cncc3F)CC2)C1` [Example 61, {1-[1-(3,5-difluoroisonicotinoyl)piperidin-4-yl]-3-[4-(7H-pyrrolo[2,3-d]pyrimidin-4-yl)-1H-pyrazol-1-yl]azetidin-3-yl}acetonitrile] the “IC50 Ratio JAK2/JAK1” value was 4.2.

`N#CCC1(n2cc(-c3ncnc4[nH]ccc34)cn2)CN(C2CCN(C(=O)c3ccccc3F)CC2)C1` [Example 67, {1-[1-(2-fluorobenzoyl)piperidin-4-yl]-3-[4-(7H-pyrrolo[2,3-d]pyrimidin-4-yl)-1H-pyrazol-1-yl]azetidin-3-yl}acetonitrile] was tested, and the “IC50 Ratio JAK2/JAK1” value was 4.7.

With `N#CCC1(n2cc(-c3ncnc4[nH]ccc34)cn2)CN(C2CCN(C(=O)c3sc(C(F)(F)F)cc3O)CC2)C1` [Example 71, {1-{1-[3-hydroxy-5-(trifluoromethyl)-2-thienylcarbonyl]piperidin-4-yl}-3-[4-(7H-pyrrolo[2,3-d]pyrimidin-4-yl)-1H-pyrazol-1-yl]azetidin-3-yl}acetonitrile] the “IC50 Ratio JAK2/JAK1” value was 4.4.

In the case of `COc1cscc1C(=O)N1CCC(N2CC(CC#N)(n3cc(-c4ncnc5[nH]ccc45)cn3)C2)CC1` [Example 72, {1-{1-[(4-methoxy-3-thienyl)carbonyl]piperidin-4-yl}-3-[4-(7H-pyrrolo[2,3-d]pyrimidin-4-yl)-1H-pyrazol-1-yl]azetidin-3-yl} acetonitrile], the “IC50 Ratio JAK2/JAK1” value is reported as 6.6.

With `Cc1cc(C(=O)N2CCC(N3CC(CC#N)(n4cc(-c5ncnc6[nH]ccc56)cn4)C3)CC2)cs1` [Example 73, {1-{1-[(5-methyl-3-thienyl)carbonyl]piperidin-4-yl}-3-[4-(7H-pyrrolo[2,3-d]pyrimidin-4-yl)-1H-pyrazol-1-yl]azetidin-3-yl} acetonitrile] the “IC50 Ratio JAK2/JAK1” value was 4.2.

With `COc1c(C(=O)N2CCC(N3CC(CC#N)(n4cc(-c5ncnc6[nH]ccc56)cn4)C3)CC2)csc1Cl` [Example 74, {1-{1-[(5-chloro-4-methoxy-3-thienyl)carbonyl]piperidin-4-yl}-3-[4-(7H-pyrrolo[2,3-d]pyrimidin-4-yl)-1H-pyrazol-1-yl]azetidin-3-yl} acetonitrile] the “IC50 Ratio JAK2/JAK1” value was 3.8.

`N#CCC1(n2cc(-c3ncnc4[nH]ccc34)cn2)CN(C2CCN(C(=O)c3ccsc3Br)CC2)C1` [Example 75, {1-{1-[(2-bromo-3-thienyl)carbonyl]piperidin-4-yl}-3-[4-(7H-pyrrolo[2,3-d]pyrimidin-4-yl)-1H-pyrazol-1-yl]azetidin-3-yl}acetonitrile] was tested, and the “IC50 Ratio JAK2/JAK1” value was 3.4.

For `N#CCC1(n2cc(-c3ncnc4[nH]ccc34)cn2)CN(C2CCN(C(=O)c3sccc3Cl)CC2)C1` [Example 76, {1-{1-[(3-chloro-2-thienyl)carbonyl]piperidin-4-yl}-3-[4-(7H-pyrrolo[2,3-d]pyrimidin-4-yl)-1H-pyrazol-1-yl]azctidin-3-yl}acetonitrile], the “IC50 Ratio JAK2/JAK1” value was 5.5.

For `N#CCC1(n2cc(-c3ncnc4[nH]ccc34)cn2)CN(C2CCN(C(=O)c3ccc(Cl)s3)CC2)C1` [Example 77, {1-{1-[(5-chloro-2-thienyl)carbonyl]piperidin-4-yl}-3-[4-(7H-pyrrolo[2,3-d]pyrimidin-4-yl)-1H-pyrazol-1-yl]azetidin-3-yl}acetonitrile], the “IC50 Ratio JAK2/JAK1” value was 5.5.

`Cc1ccsc1C(=O)N1CCC(N2CC(CC#N)(n3cc(-c4ncnc5[nH]ccc45)cn3)C2)CC1` [Example 78, {1-{1-[(3-methyl-2-thienyl)carbonyl]piperidin-4-yl}-3-[4-(7H-pyrrolo[2,3-d]pyrimidin-4-yl)-1H-pyrazol-1-yl]azetidin-3-yl}acetonitrile] was tested, and the “IC50 Ratio JAK2/JAK1” value was 5.4.

`Cc1ccc(C(=O)N2CCC(N3CC(CC#N)(n4cc(-c5ncnc6[nH]ccc56)cn4)C3)CC2)s1` [Example 80, {1-{1-[(5-methyl-2-thienyl)carbonyl]piperidin-4-yl}-3-[4-(7H-pyrrolo[2,3-d]pyrimidin-4-yl)-1H-pyrazol-1-yl]azetidin-3-yl}acetonitrile] was tested, and the “IC50 Ratio JAK2/JAK1” value was 4.1.
